Assay results taken from paper PMC3744471, “Mitochondria Are the Target Organelle of Differentiation-Inducing Factor-3, an Anti-Tumor Agent Isolated from Dictyostelium Discoideum” (PLoS ONE, 2013).
Where two headings read alike, the source gives them in different places.

How the values were obtained:
[1] = system: mitochondrial respiration; design: method as in PMID 7777565; conditions: in D. discoideum; read-out: IC50 for inhibition (uncoupling) of mitochondrial respiration; cited from earlier work
[2] = system: calmodulin-dependent cyclic nucleotide phosphodiesterase (PDE1); design: method as in PMID 15059913; conditions: cited from earlier work
[3] = system: mitochondrial malate dehydrogenase (mMDH); design: method as in PMID 20173310; conditions: cited from earlier work
HeLa cells = assay: Cell growth assay (Alamar blue), HeLa; type: cell-based, human
Description: HeLa, LM8, and 3T3-L1 cells were cultured for 3 days at 2.5–5×10^3 cells/well in 12-well plates with each well filled with 1 ml of DMEM-FBS (for HeLa and 3T3-L1) or MEM-α-FBS (for LM8) together with drugs at various concentrations. Then, the incubation media were discarded and the cells were washed with 1 ml of PBS(–) (20 mM phosphate buffered saline, pH 7.4) and incubated with 1 ml of fresh DMEM-FBS (HeLa and 3T3-L1) or MEM-α-FBS (LM8) containing 5% (v/v) of Alamar blue (a cell number indicator; Wako Pure Chemical Industries, Osaka, Japan) until the color changed. […] Relative cell numbers were determined for each concentration for each drug and the IC50 was determined from the dose-response curves.

mouse liver mitochondria = assay: Mitochondrial oxygen consumption (Clark-type oxygen electrode); type: biochemical
Description: Mitochondria were isolated from mouse liver (ICR; 7–10 week-old females) by differential centrifugation as described previously. Cells were homogenized in a Potter glass homogenizer with H-Buffer (250 mM sucrose, 10 mM Tris-HCl pH 7.4), and centrifuged at 800g for 1 min at 4°C. The supernatant was centrifuged at 6,000g for 5 min, and the resulting pellet, the crude mitochondrial fraction, was suspended in H-Buffer. The suspension was layered over a discontinuous sucrose gradient consisting of 1.1 M and 1.6 M sucrose in a Tris buffer (10 mM Tris-HCl pH 7.4), and centrifuged for 3 h at 90,000g at 4°C. The interface was collected in Tris buffer and centrifuged at 6,000g for 5 min. The resulting pellets were suspended in Tris buffer and used for experiments after confirming the presence of the mitochondrial marker cytochrome c.
Mitochondrial oxygen consumption was determined using a Clark-type oxygen electrode (Strathkelvin Instruments Ltd., North Lanarkshire, Scotland) as described, [39]. The mitochondria-enriched fraction was incubated at 30°C in oxygen measurement buffer (225 mM mannitol, 75 mM sucrose, 10 mM KCl, 0.1 mM EDTA, 3 mM phosphate, 5 mM succinate, 5 mM glutamate, and 20 mM Tris-HCl pH 7.4) in the presence or absence of various concentrations of the DIF-like molecules or CCCP. After recording ‘State 4’ of the respiration reaction, an aliquot of ADP was added to a final concentration of 200 µM to induce ‘State 3’. The PC100 (100% promoting concentration) of each additive was defined as the drug concentration that doubled the basal rate of oxygen consumption during State 3, which was calculated from the dose-response plot for the rate of oxygen consumption (Figure 8).

3T3-L1 cells = assay: Cell growth assay (Alamar blue), 3T3-L1; type: cell-based, mouse; conditions: Mus musculus, 72 h; 3T3-L1 cells, 3 days, Alamar blue
Description: (§1) HeLa, LM8, and 3T3-L1 cells were cultured for 3 days at 2.5–5×10^3 cells/well in 12-well plates with each well filled with 1 ml of DMEM-FBS (for HeLa and 3T3-L1) or MEM-α-FBS (for LM8) together with drugs at various concentrations. Then, the incubation media were discarded and the cells were washed with 1 ml of PBS(–) (20 mM phosphate buffered saline, pH 7.4) and incubated with 1 ml of fresh DMEM-FBS (HeLa and 3T3-L1) or MEM-α-FBS (LM8) containing 5% (v/v) of Alamar blue (a cell number indicator; Wako Pure Chemical Industries, Osaka, Japan) until the color changed. The relative cell number was assessed by measuring absorbance at 570 nm (reference at 595 nm) as described previously, [14]; DIF-related compounds and BODIPY-conjugated compounds hardly disturbed the cell number assessment with Alamar blue (data not shown), probably because the additive compounds were washed out when cell number was assessed. For determination of the 50% inhibitory concentration (IC50) of each drug, the cells were cultured for 3 days in the presence of each drug at various concentrations. Relative cell numbers were determined for each concentration for each drug and the IC50 was determined from the dose-response curves.
(§2) Supplementary file pone.0072118.s002.tif: Figure S2 Effects of BODIPY-DIF-3 and CCCP on cell growth, and cellular localization of BODIPY-DIF-3 in 3T3-L1 cells. (A) Cells were incubated for 4 days with 5–20 µM of BODIPY-DIF-3 (closed circles) or 2–10 µM of CCCP (closed triangles), and relative cell number was assessed by the use of Alamar blue. Data are the mean values and SD (bars) of three independent experiments. (B) Cells were incubated for 0.5 h or 3 days with 20 µM of BODIPY-DIF-3, washed free of the additive, and observed microscopically. (C) Cells were incubated for 0.5 h with BODIPY-DIF-3 (20 µM), Hoechst (0.1 µg/ml), and MitoTracker (0.1 µM), washed free of the additives, and observed by using a high-magnification fluorescence microscope. (D) Cells were incubated for 3 days with BODIPY-DIF-3 (20 µM) and then for 0.5 h with Hoechst (0.1 µg/ml) and MitoTracker (0.1 µM). Cells were washed free of the additives and observed by using a high-magnification fluorescence microscope. (TIF) Click here for additional data file.

LM8 cells = assay: Cell growth assay (Alamar blue), LM8; type: cell-based, mouse; conditions: Mus musculus, 72 h; LM8 cells, 3 days, Alamar blue
Description: as §1
as §2, with “pone.0072118.s001.tif:” for “pone.0072118.s002.tif:”, “S1” for “S2”, “LM8” for “3T3-L1”

[4] = system: cyclin D1 and cyclin D3 in HeLa cells; assay: Western blotting of cyclin D expression; type: cell-based, human; conditions: 20 h, DIF-3 20 µM, Bu-DIF-3 5–7.5 µM, BODIPY-DIF-3 20 µM, CCCP 10 µM, azide 0.01%
Description: HeLa cells were incubated for 20 h with 1 ml of DMEM-FBS containing the indicated additives in 12-well plates (2–4×10^5 cells/well), washed twice with PBS(–), harvested by adding 100–200 µl of an SDS-sample buffer solution (in proportion to cell density: relative cell number), sonicated (heated), and used for SDS-PAGE. Western blot transfer and immunoblotting were performed as described previously, by using a primary antibody for cyclin D1, cyclin D2, cyclin D3, or GAPDH, and a second antibody, an alkaline phosphatase-conjugated anti-mouse or anti-rabbit IgG antibody. […] Visualized protein bands were then digitized and quantified by using Adobe Photoshop CS4 (version 11.0) (Adobe, San Jose, CA, USA) and ImageJ Software (version 1.4) (http://rsb.info.nih.gov/ij/).

Question: Which results are given for CCCCCC(=O)c1c(O)c(Cl)c(OC)c(Cl)c1O [DIF-1, 1-(3,5-dichloro-2,6-dihydroxy-4-methoxyphenyl)hexan-1-one, reference compound]?
Answer: IC50 [1]: 0.54 µM; Inhibition of PDE1 [2]: direct inhibitors of PDE1; Binding to and inhibition of mMDH [3]: binds to mitochondrial malate dehydrogenase (mMDH) and inhibits its activity; Effect on cell growth (relative cell number) (HeLa cells; HeLa, 20 µM, 3 days): significantly suppressed

Question: Which “Effect on basal rate of O2 consumption” value (mouse liver mitochondria; 1–100 µM) does the source give for CCCCNC(=O)CCC1=[N+]2C(=Cc3c(C)cc(C)n3[B-]2(F)F)C=C1 [Bu-BODIPY] here?
Answer: Its value is “had no effect”.

Question: What about the “PC100 (µM) for Mito. O2 consumption” value (mouse liver mitochondria; 100% promoting concentration: doubles the basal rate of oxygen consumption, 30°C) of the same molecule?
Answer: The value was over 100 µM.

Question: What about the IC50 (3T3-L1 cells) of the same molecule?
Answer: Its IC50 is over 20 µM.

Question: And the “Effect on cell growth (relative cell number)” value (HeLa cells; HeLa, 5–20 µM (Bu-BODIPY up to 20 µM), 3 days)?
Answer: Its value is “hardly affected”.

Question: And the IC50 (HeLa cells; Homo sapiens, 72 h, HeLa cells, 3 days, Alamar blue)?
Answer: The IC50 was over 20 µM.

Question: What about the IC50 (LM8 cells) of the same molecule?
Answer: The IC50 was over 20 µM.

Question: With [N-]=[N+]=[N-].[Na+] [azide, NaN3, reference compound] as the molecule, how does the “Effect on cell growth (relative cell number)” value (HeLa cells) read?
Answer: The value was “suppressed cell growth”.

Question: What about the “Expression of cyclin D1” value [4] of the same molecule?
Answer: The value was “suppressed”.

Question: And the “Expression of cyclin D3” value [4]?
Answer: The value was “but not of cyclin D3”.
